Assays:
[1] = target: T1, Equilibrative nucleoside transporter 1 (Homo sapiens, UniProt Q99808)
T1 sequence (Q99808 whole entry): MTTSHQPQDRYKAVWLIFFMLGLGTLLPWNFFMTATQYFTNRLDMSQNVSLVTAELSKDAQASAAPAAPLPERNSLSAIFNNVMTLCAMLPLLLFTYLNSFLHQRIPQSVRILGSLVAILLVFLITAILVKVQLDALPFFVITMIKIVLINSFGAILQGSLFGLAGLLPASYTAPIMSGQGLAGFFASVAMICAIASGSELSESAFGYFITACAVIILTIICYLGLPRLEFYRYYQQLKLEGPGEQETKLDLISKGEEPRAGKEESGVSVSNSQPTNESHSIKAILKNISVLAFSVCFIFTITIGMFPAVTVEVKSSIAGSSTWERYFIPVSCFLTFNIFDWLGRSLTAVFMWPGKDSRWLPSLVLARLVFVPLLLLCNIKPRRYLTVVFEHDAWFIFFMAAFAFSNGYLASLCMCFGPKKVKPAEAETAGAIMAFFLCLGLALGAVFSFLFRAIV

Estrogen receptor = target: T2, Estrogen receptor (Homo sapiens, UniProt P03372)
T2 sequence (P03372 whole entry): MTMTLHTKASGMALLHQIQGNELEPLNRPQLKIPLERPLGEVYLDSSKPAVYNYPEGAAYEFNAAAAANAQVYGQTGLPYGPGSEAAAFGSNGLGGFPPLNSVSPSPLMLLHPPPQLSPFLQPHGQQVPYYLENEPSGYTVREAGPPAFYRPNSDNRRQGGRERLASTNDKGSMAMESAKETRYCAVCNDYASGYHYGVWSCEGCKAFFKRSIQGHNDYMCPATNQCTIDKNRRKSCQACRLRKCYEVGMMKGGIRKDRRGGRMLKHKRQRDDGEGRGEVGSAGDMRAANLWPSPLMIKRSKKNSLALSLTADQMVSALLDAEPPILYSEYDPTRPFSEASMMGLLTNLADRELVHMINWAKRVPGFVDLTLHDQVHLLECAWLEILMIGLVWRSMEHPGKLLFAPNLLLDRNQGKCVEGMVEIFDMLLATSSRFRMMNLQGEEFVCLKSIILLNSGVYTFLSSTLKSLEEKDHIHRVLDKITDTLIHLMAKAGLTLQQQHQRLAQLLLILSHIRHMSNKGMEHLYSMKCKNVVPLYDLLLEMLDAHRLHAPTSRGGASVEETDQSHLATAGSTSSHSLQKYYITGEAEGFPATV

[2] = target: Sodium-dependent serotonin transporter (Homo sapiens, UniProt P31645)
[3] = target: Voltage-dependent L-type calcium channel subunit alpha-1C (Rattus norvegicus, UniProt P22002); assay type: functional
[4] = target: Beta-2 adrenergic receptor (Homo sapiens, UniProt P07550)
Endothelin-1 receptor = target: T3, Endothelin-1 receptor (Homo sapiens, UniProt P25101)
T3 sequence (P25101 whole entry): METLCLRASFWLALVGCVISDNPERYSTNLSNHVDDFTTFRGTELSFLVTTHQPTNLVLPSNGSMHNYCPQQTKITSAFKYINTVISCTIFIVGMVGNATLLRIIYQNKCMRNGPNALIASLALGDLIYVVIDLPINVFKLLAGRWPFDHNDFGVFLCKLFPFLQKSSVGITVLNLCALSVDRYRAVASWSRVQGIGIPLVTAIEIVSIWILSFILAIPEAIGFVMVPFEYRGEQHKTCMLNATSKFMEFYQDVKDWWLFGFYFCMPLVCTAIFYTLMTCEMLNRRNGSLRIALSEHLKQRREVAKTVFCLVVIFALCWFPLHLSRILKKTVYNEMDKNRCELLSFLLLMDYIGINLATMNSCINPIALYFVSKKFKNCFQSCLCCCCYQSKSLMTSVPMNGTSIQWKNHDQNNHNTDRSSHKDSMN

Progesterone receptor = target: T4, Progesterone receptor (Homo sapiens, UniProt P06401); assay type: functional
T4 sequence (P06401 whole entry): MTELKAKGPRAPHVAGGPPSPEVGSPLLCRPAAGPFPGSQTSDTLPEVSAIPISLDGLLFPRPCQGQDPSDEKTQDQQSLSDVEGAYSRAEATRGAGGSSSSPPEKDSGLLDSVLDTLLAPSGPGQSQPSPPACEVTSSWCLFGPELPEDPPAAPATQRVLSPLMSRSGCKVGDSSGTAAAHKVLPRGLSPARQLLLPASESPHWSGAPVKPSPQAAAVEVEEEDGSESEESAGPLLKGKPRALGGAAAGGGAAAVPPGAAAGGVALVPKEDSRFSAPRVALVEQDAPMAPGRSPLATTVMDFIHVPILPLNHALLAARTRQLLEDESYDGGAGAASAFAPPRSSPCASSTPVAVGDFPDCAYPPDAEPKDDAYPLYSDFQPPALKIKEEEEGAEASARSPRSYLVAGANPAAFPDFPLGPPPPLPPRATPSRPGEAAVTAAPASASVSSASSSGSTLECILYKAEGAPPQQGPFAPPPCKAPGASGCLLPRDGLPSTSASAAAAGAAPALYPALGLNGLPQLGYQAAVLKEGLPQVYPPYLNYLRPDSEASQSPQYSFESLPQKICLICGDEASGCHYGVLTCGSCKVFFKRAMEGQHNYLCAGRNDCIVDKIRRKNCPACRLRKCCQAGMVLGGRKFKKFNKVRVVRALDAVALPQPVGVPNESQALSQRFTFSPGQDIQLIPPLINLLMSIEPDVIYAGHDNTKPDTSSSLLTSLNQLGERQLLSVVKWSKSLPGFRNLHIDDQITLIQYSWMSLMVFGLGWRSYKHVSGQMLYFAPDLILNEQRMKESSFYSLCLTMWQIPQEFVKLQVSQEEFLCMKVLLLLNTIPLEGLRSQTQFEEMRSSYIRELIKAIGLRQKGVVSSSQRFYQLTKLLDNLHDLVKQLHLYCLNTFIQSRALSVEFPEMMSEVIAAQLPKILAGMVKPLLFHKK

Thromboxane A2 receptor = target: T5, Thromboxane A2 receptor (Homo sapiens, UniProt P21731)
T5 sequence (P21731 whole entry): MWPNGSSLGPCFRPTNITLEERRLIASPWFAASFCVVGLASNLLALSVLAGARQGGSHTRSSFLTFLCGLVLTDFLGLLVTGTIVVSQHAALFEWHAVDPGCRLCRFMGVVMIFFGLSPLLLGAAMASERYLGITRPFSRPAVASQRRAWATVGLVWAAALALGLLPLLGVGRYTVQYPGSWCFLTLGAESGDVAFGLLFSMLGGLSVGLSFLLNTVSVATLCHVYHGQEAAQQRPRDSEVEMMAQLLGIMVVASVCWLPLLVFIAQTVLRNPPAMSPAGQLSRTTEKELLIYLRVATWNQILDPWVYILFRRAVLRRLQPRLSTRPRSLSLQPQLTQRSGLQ

Motilin receptor = Motilin receptor (Homo sapiens, UniProt O43193)
Also: assay procedure not described here.

Motilin receptor, sequence (O43193 whole entry): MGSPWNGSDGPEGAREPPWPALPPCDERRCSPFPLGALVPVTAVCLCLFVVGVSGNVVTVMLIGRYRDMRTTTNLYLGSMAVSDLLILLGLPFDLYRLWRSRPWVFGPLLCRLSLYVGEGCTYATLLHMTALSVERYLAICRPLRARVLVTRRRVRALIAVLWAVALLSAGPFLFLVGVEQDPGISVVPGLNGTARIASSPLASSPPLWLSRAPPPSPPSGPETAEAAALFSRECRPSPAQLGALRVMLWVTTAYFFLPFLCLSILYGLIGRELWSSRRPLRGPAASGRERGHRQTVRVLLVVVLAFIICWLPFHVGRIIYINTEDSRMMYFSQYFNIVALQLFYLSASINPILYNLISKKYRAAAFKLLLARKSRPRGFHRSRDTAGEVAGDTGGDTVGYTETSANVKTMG
Beta-2 adrenergic receptor, sequence (P07550 whole entry): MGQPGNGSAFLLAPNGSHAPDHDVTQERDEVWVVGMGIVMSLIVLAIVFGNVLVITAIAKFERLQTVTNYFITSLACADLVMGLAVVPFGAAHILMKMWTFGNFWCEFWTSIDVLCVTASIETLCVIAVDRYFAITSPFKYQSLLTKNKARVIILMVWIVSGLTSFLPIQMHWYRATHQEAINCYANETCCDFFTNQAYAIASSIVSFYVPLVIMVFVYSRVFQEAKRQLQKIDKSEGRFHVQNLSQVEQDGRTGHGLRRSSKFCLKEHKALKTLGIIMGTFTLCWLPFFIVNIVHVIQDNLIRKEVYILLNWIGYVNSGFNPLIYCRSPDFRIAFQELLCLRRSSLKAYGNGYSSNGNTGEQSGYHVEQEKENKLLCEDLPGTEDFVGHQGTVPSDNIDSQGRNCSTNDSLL
Sodium-dependent serotonin transporter, sequence (P31645 whole entry): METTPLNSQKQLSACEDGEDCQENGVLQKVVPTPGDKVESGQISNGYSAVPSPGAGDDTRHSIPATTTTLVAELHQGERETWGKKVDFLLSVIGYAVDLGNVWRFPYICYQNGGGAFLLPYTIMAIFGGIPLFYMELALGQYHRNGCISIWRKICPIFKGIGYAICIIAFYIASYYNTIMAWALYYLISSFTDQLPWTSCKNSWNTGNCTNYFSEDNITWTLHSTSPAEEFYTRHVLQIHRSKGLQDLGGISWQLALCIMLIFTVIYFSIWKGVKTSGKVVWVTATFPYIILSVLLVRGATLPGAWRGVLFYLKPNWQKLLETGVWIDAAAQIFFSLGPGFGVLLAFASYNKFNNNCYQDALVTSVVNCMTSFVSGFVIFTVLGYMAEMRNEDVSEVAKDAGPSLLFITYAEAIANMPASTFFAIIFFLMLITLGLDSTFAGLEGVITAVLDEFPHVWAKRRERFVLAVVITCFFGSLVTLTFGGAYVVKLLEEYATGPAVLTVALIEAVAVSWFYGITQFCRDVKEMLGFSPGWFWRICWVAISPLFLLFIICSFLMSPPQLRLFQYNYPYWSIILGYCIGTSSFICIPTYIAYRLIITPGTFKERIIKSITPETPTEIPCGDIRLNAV
Voltage-dependent L-type calcium channel subunit alpha-1C, sequence (P22002 whole entry): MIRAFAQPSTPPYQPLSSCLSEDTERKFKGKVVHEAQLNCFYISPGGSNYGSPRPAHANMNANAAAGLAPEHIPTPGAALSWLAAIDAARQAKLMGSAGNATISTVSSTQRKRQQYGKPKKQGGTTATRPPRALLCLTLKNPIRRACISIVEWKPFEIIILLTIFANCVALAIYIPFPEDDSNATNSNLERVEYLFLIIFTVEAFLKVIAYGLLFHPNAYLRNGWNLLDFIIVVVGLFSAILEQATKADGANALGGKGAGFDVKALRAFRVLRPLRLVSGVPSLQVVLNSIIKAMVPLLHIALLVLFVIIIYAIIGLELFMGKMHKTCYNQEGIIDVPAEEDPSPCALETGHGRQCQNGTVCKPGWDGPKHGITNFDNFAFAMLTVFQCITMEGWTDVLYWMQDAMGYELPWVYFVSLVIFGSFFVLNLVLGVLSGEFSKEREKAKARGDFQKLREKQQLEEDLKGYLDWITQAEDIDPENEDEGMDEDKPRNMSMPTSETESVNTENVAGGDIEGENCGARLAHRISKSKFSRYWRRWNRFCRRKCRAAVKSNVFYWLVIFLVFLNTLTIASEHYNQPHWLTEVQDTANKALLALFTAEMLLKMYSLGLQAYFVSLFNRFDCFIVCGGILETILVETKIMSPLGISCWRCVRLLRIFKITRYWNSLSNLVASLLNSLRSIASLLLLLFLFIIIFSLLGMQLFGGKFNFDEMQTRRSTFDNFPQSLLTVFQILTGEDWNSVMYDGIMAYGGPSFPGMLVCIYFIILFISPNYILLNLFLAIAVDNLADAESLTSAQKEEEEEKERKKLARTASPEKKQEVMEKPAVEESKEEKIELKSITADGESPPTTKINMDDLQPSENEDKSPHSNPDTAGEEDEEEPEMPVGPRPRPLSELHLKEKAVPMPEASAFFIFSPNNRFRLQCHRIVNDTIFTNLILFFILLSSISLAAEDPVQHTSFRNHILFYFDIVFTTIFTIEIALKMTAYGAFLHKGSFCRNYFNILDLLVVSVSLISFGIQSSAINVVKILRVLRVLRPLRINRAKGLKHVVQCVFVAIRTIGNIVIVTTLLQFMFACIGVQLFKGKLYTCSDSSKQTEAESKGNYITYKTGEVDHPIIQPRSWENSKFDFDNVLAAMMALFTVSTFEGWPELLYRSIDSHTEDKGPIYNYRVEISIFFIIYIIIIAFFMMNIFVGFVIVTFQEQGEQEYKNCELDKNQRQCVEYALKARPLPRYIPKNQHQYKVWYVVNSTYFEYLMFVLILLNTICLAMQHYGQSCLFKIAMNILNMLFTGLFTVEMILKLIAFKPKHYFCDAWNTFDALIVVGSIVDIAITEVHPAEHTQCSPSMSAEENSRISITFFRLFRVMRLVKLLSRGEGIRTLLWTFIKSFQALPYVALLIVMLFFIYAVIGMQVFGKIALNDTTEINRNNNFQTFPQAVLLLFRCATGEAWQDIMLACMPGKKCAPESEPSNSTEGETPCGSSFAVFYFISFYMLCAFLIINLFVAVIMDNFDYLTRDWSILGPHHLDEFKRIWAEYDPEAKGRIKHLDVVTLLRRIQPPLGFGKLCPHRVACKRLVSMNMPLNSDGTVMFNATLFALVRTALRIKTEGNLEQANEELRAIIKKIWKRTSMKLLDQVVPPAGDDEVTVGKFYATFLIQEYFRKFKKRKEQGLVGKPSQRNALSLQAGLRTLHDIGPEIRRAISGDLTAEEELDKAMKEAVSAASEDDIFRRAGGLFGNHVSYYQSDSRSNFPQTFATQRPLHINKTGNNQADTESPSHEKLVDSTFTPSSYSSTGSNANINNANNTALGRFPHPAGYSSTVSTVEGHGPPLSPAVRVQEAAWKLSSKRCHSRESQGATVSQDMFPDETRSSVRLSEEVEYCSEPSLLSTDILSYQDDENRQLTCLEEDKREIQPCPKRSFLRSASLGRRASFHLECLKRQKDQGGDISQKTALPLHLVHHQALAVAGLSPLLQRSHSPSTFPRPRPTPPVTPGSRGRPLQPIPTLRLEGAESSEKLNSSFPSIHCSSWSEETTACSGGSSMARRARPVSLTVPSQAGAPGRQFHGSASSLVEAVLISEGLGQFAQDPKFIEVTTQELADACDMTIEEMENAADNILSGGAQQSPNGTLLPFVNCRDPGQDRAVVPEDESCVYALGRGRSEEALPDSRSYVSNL

SMILES	AC50 [1] [µM]	AC50 (Estrogen receptor) [µM]	AC50 [2] [µM]	AC50 [3] [µM]	AC50 [4] [µM]	AC50 (Endothelin-1 receptor) [µM]	AC50 (Progesterone receptor) [µM]	AC50 (Thromboxane A2 receptor) [µM]	AC50 (Motilin receptor) [µM]
N[C@@H](CSCC(=O)O)C(=O)O [CARBOCYSTEINE]	> 30	> 30	> 30	> 30	> 30	> 30	> 30	> 30	> 30
O=C(O)CCn1c2c(c3ccccc31)C[C@H](NS(=O)(=O)c1ccc(F)cc1)CC2 [RAMATROBAN]	> 30	> 30	> 30	> 10	> 30	> 10	> 30	0.0311	> 30
